Columns and labels:
Assay in all cases: relative viability (nuclei count vs DMSO), 5 days (fraction); higher = more cells survive
[1] = compound: O=C(Nc1cccc(C(F)(F)F)c1)Nc1cc(S(=O)(=O)NC2CC2)ccc1-c1ccsc1 [AGI-6780] + CS(=O)(=O)CCNCc1ccc(-c2ccc3ncnc(Nc4ccc(OCc5cccc(F)c5)c(Cl)c4)c3c2)o1 [Lapatinib] (partner 2 µM)
Summary of the method: (§1)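 The day after seeding in 1536-well plates, lung cancer cell lines were treated by pin tool with a single drug, or with a fixed anchor-drug dose together with five library-drug doses (not always all listed) in √10 steps. After 5 days, a combined fix-and-stain solution (final 0.05% Triton X-100, 1% formaldehyde, 1 ug/ml Hoechst) was added. Nuclei counted on 4× images gave relative viability as treated counts over vehicle counts, reported as the median of duplicate plates.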

[2] = compound: O=C(Nc1cccc(C(F)(F)F)c1)Nc1cc(S(=O)(=O)NC2CC2)ccc1-c1ccsc1 [AGI-6780] + C[C@@H](Oc1cc(-c2cnn(C3CCNCC3)c2)cnc1N)c1c(Cl)ccc(F)c1Cl [Crizotinib] (partner 1 µM)
Summary of the method: as §1

[3] = compound: O=C(Nc1cccc(C(F)(F)F)c1)Nc1cc(S(=O)(=O)NC2CC2)ccc1-c1ccsc1 [AGI-6780] + Cc1cc(Nc2cc(N3CCN(C)CC3)nc(Sc3ccc(NC(=O)C4CC4)cc3)n2)n[nH]1 [Tozasertib] (partner 0.1 µM)
Summary of the method: as §1

[4] = compound: O=C(Nc1cccc(C(F)(F)F)c1)Nc1cc(S(=O)(=O)NC2CC2)ccc1-c1ccsc1 [AGI-6780] + Nc1ncn([C@H]2C[C@H](O)[C@@H](CO)O2)c(=O)n1 [Decitabine] (partner 2 µM)
Summary of the method: as §1

Cell Line NCI-H661 has a relative viability ([1]; first compound 0.08 µM) of 0.549, a relative viability ([1]; first compound 0.253 µM) of 0.518 and a relative viability ([1]; first compound 0.8 µM) of 0.616. For the same cell line, the relative viability ([1]; first compound 2.53 µM) was 0.474, the relative viability ([1]; first compound 8 µM) was 0.516 and the relative viability ([2]; first compound 0.08 µM) was 1.02. It also gave a relative viability ([2]; first compound 0.253 µM) of 0.921, a relative viability ([2]; first compound 0.8 µM) of 1.22 and a relative viability ([2]; first compound 2.53 µM) of 0.996. For the same cell line, the relative viability ([2]; first compound 8 µM) was 1.08, the relative viability ([3]; first compound 0.08 µM) was 0.367 and the relative viability ([3]; first compound 0.253 µM) was 0.36. It also gave a relative viability ([3]; first compound 0.8 µM) of 0.357, a relative viability ([3]; first compound 2.53 µM) of 0.345 and a relative viability ([3]; first compound 8 µM) of 0.354. The relative viability ([4]; first compound 0.08 µM) was 0.589, the relative viability ([4]; first compound 0.253 µM) was 0.567 and the relative viability ([4]; first compound 0.8 µM) was 0.612. It also gave a relative viability ([4]; first compound 2.53 µM) of 0.502 and a relative viability ([4]; first compound 8 µM) of 0.558.
For NCI-H727, the relative viability ([1]; first compound 0.08 µM) was 1.05, the relative viability ([1]; first compound 0.253 µM) was 0.961 and the relative viability ([1]; first compound 0.8 µM) was 0.93. For the same cell line, the relative viability ([1]; first compound 2.53 µM) was 0.712, the relative viability ([1]; first compound 8 µM) was 0.811 and the relative viability ([2]; first compound 0.08 µM) was 0.887. It also gave a relative viability ([2]; first compound 0.253 µM) of 0.702, a relative viability ([2]; first compound 0.8 µM) of 0.842 and a relative viability ([2]; first compound 2.53 µM) of 0.844. For the same cell line, the relative viability ([2]; first compound 8 µM) was 0.843, the relative viability ([3]; first compound 0.08 µM) was 0.583 and the relative viability ([3]; first compound 0.253 µM) was 0.568. For the same cell line, the relative viability ([3]; first compound 0.8 µM) was 0.669, the relative viability ([3]; first compound 2.53 µM) was 0.722 and the relative viability ([3]; first compound 8 µM) was 0.681. The relative viability ([4]; first compound 0.08 µM) was 0.939, the relative viability ([4]; first compound 0.253 µM) was 0.95 and the relative viability ([4]; first compound 0.8 µM) was 0.857. The relative viability ([4]; first compound 2.53 µM) was 0.951 and the relative viability ([4]; first compound 8 µM) was 0.897.
NCI-H838 was tested, and the relative viability ([1]; first compound 0.08 µM) was 1.18, the relative viability ([1]; first compound 0.253 µM) was 0.99 and the relative viability ([1]; first compound 0.8 µM) was 1.05. The relative viability ([1]; first compound 2.53 µM) was 0.871, the relative viability ([1]; first compound 8 µM) was 1.23 and the relative viability ([2]; first compound 0.08 µM) was 0.979. For the same cell line, the relative viability ([2]; first compound 0.253 µM) was 0.795, the relative viability ([2]; first compound 0.8 µM) was 0.973 and the relative viability ([2]; first compound 2.53 µM) was 0.812. It also gave a relative viability ([2]; first compound 8 µM) of 0.844, a relative viability ([3]; first compound 0.08 µM) of 0.321 and a relative viability ([3]; first compound 0.253 µM) of 0.244. The relative viability ([3]; first compound 0.8 µM) was 0.295, the relative viability ([3]; first compound 2.53 µM) was 0.276 and the relative viability ([3]; first compound 8 µM) was 0.224. It also gave a relative viability ([4]; first compound 0.08 µM) of 0.445, a relative viability ([4]; first compound 0.253 µM) of 0.495 and a relative viability ([4]; first compound 0.8 µM) of 0.479. The relative viability ([4]; first compound 2.53 µM) was 0.506 and the relative viability ([4]; first compound 8 µM) was 0.47.
With NCI-H1355 the relative viability ([1]; first compound 0.08 µM) was 1.03, the relative viability ([1]; first compound 0.253 µM) was 1.04 and the relative viability ([1]; first compound 0.8 µM) was 0.944. The relative viability ([1]; first compound 2.53 µM) was 0.685, the relative viability ([1]; first compound 8 µM) was 0.96 and the relative viability ([2]; first compound 0.08 µM) was 1.04. For the same cell line, the relative viability ([2]; first compound 0.253 µM) was 1.02, the relative viability ([2]; first compound 0.8 µM) was 1.08 and the relative viability ([2]; first compound 2.53 µM) was 0.943. The relative viability ([2]; first compound 8 µM) was 1.01, the relative viability ([3]; first compound 0.08 µM) was 0.594 and the relative viability ([3]; first compound 0.253 µM) was 0.575. For the same cell line, the relative viability ([3]; first compound 0.8 µM) was 0.562, the relative viability ([3]; first compound 2.53 µM) was 0.41 and the relative viability ([3]; first compound 8 µM) was 0.45. The relative viability ([4]; first compound 0.08 µM) was 0.353, the relative viability ([4]; first compound 0.253 µM) was 0.419 and the relative viability ([4]; first compound 0.8 µM) was 0.357. The relative viability ([4]; first compound 2.53 µM) was 0.34 and the relative viability ([4]; first compound 8 µM) was 0.355.
In the case of NCI-H1437, the relative viability ([1]; first compound 0.08 µM) is reported as 0.825, the relative viability ([1]; first compound 0.253 µM) is reported as 0.834 and the relative viability ([1]; first compound 0.8 µM) is reported as 0.863. For the same cell line, the relative viability ([1]; first compound 2.53 µM) was 0.838, the relative viability ([1]; first compound 8 µM) was 0.941 and the relative viability ([2]; first compound 0.08 µM) was 0.974. For the same cell line, the relative viability ([2]; first compound 0.253 µM) was 0.87, the relative viability ([2]; first compound 0.8 µM) was 0.922 and the relative viability ([2]; first compound 2.53 µM) was 0.965. It also gave a relative viability ([2]; first compound 8 µM) of 0.916, a relative viability ([3]; first compound 0.08 µM) of 0.486 and a relative viability ([3]; first compound 0.253 µM) of 0.42. For the same cell line, the relative viability ([3]; first compound 0.8 µM) was 0.428, the relative viability ([3]; first compound 2.53 µM) was 0.408 and the relative viability ([3]; first compound 8 µM) was 0.391. It also gave a relative viability ([4]; first compound 0.08 µM) of 0.572, a relative viability ([4]; first compound 0.253 µM) of 0.587 and a relative viability ([4]; first compound 0.8 µM) of 0.594. It also gave a relative viability ([4]; first compound 2.53 µM) of 0.583 and a relative viability ([4]; first compound 8 µM) of 0.576.
In the case of NCI-H1650, the relative viability ([1]; first compound 0.08 µM) is reported as 0.739, the relative viability ([1]; first compound 0.253 µM) is reported as 0.777 and the relative viability ([1]; first compound 0.8 µM) is reported as 1.16. For the same cell line, the relative viability ([1]; first compound 2.53 µM) was 0.789, the relative viability ([1]; first compound 8 µM) was 0.874 and the relative viability ([2]; first compound 0.08 µM) was 0.966. It also gave a relative viability ([2]; first compound 0.253 µM) of 1.01, a relative viability ([2]; first compound 0.8 µM) of 1.14 and a relative viability ([2]; first compound 2.53 µM) of 0.938. It also gave a relative viability ([2]; first compound 8 µM) of 1.02, a relative viability ([3]; first compound 0.08 µM) of 0.367 and a relative viability ([3]; first compound 0.253 µM) of 0.432. For the same cell line, the relative viability ([3]; first compound 0.8 µM) was 0.442, the relative viability ([3]; first compound 2.53 µM) was 0.381 and the relative viability ([3]; first compound 8 µM) was 0.293. For the same cell line, the relative viability ([4]; first compound 0.08 µM) was 0.435, the relative viability ([4]; first compound 0.253 µM) was 0.485 and the relative viability ([4]; first compound 0.8 µM) was 0.381. It also gave a relative viability ([4]; first compound 2.53 µM) of 0.305 and a relative viability ([4]; first compound 8 µM) of 0.387.

Reference: the supplement of paper PMC10307832
